Structures are written as SMILES.

The test has as its target T1, human IBAT (Homo sapiens, UniProt Q12908).
T1 sequence (Q12908 1-348): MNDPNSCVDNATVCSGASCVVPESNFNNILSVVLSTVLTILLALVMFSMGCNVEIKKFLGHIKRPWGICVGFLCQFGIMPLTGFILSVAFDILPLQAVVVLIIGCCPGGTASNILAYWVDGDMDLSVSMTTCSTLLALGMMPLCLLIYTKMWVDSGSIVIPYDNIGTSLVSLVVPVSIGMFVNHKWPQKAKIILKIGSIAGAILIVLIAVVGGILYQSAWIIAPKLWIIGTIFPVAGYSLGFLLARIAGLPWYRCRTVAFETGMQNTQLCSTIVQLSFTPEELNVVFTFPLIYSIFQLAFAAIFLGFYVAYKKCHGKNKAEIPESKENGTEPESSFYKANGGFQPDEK
The test can be described thus: In vitro assay using Cos 7 cells, transiently expressed human IBAT. It counts as cell-based. The note with it: 37° C., 60 minutes. On the procedure:
In the present Test Example, an in vitro assay of compounds using Cos 7 cells as to inhibitory activity on transiently expressed human IBAT or rat IBAT transporter was performed according to the method described in Am. J. Physiol., 274, G157-169.
That is, […] cells/well of Cos 7 cells were seeded in a 24-well plate, and after one day, the cells were transfected with 0.3 μg/well of cDNA of human IBAT or rat IBAT using FuGENE6 (supplied from Roche). After culturing for one day after the transfection, the cells were washed once with the assay buffer, i.e., Hanks buffer containing 25 mM glucose and 10 mM HEPES (pH 7.4). The assay buffer was then replaced with the assay buffer containing the test compound. [^3H]-Taurocholate at a final concentration of 8 μM was added thereto and incubated at 37° C. for 60 minutes so that [^3H]-taurocholate was taken into Cos 7 cells by the action of human IBAT or rat IBAT. The cells were washed twice with the assay buffer containing 1 mM taurocholate, and subsequently lysed with 0.2 M NaOH to stop the reaction. The cell lysate was added to 4 mL of liquid scintillation cocktail, which was then thoroughly vortexed. Then the radioactivity was measured using the liquid scintillation counter.

In general, IC50 refers to the concentration that gives 50% inhibition. A lower IC50 goes with inhibition by little substance. For the compound `CCCCC1(CCCC)CS(=O)(=O)c2ccc(N(C)C)cc2C(c2cccc(NC(=S)Nc3ccc(C[N+]45CCC(c6ccccc6)(CC4)CC5)c([N+](=O)[O-])c3)c2)N1` (stereo not shown) [EXAMPLE P349], the IC50 ([3H]-taurocholate 8 μM uptake) turned out to be 41 nM.

`CCCCC1(CCCC)CS(=O)(=O)c2ccc(N(C)C)cc2C(c2cccc(NC(=S)Nc3ccc(C[n+]4ccc(-c5ccccc5)cc4)c(F)c3)c2)N1` (stereo not shown) [EXAMPLE P379] registered an IC50 ([3H]-taurocholate 8 μM uptake) of 26 nM.

`CCCCC1(CCCC)CS(=O)(=O)c2ccc(N(C)C)cc2C(c2cccc(NC(=S)Nc3ccc(C[N+]45CCC(CC4)CC5)cc3Cl)c2)N1` (stereo not shown) [EXAMPLE P320]: it took 41 nM to reach half-maximal inhibition ([3H]-taurocholate 8 μM uptake) (IC50).

As for `CCCCC1(CCCC)CS(=O)(=O)c2ccc(N(C)C)cc2C(c2cccc(NC(=S)Nc3ccc(C[N+]4(C)CCC(O)CC4)cc3)c2)N1` (stereo not shown) [EXAMPLE 3599], the IC50 ([3H]-taurocholate 8 μM uptake) came out at 54 nM.

In the case of `CCCCC1(CCCC)CS(=O)(=O)c2ccc(N(C)C)cc2C(c2cccc(NC(=S)Nc3ccc(C[N+]45CCC(CC4)CC5)c(F)c3)c2)N1` (stereo not shown) [EXAMPLE P319], under “[3H]-taurocholate 8 μM uptake”, half-maximal inhibition (IC50) was put at 42 nM.

In the case of `CCCCC1(CCCC)CS(=O)(=O)c2ccc(N(C)C)cc2C(c2cccc(NC(=S)Nc3ccc(C[n+]4cccc(C(=O)c5ccccc5)c4)cc3)c2)N1` (racemic) [EXAMPLE 3748], the IC50 ([3H]-taurocholate 8 μM uptake) amounted to 81 nM.

As to `CCCCC1(CCCC)CS(=O)(=O)c2ccc(N(C)C)cc2C(c2cccc(NC(=S)Nc3ccc(C[n+]4ccc(-c5ccccc5)cc4)c([N+](=O)[O-])c3)c2)N1` (stereo not shown) [EXAMPLE P385], for the setting “[3H]-taurocholate 8 μM uptake”, the IC50 was 56 nM.

In turn, `CCC#CC[N+](C)(C)Cc1ccc(NC(=S)Nc2cccc(C3NC(CCCC)(CCCC)CS(=O)(=O)c4ccc(N(C)C)cc43)c2)cc1` (stereo not shown) [EXAMPLE 3434] yielded an IC50 ([3H]-taurocholate 8 μM uptake) of 71 nM.

In turn, `CCCCC1(CCCC)CS(=O)(=O)c2ccc(N(C)C)cc2C(c2cccc(NC(=S)Nc3ccc(C[n+]4cccc(Cl)c4)cc3)c2)N1` (stereo not shown) [EXAMPLE 5418] gave an IC50 ([3H]-taurocholate 8 μM uptake) of 69 nM.

Turning to `CCCCCCCC[N+](C)(C)Cc1ccc(NC(=S)Nc2cccc(C3NC(CCCC)(CCCC)CS(=O)(=O)c4ccc(N(C)C)cc43)c2)cc1` (stereo not shown) [EXAMPLE 3412], under “[3H]-taurocholate 8 μM uptake”, the IC50 is 75 nM.

Regarding `CCCCC1(CCCC)CS(=O)(=O)c2ccc(N(C)C)cc2C(c2cccc(NC(=S)Nc3ccc(C[N+](C)(C)Cc4cccs4)cc3)c2)N1` (racemic) [EXAMPLE 3449], the IC50 ([3H]-taurocholate 8 μM uptake) is 55 nM.

Consider `CCCCC1(CCCC)CS(=O)(=O)c2ccc(N(C)C)cc2C(c2cccc(NC(=S)Nc3ccc(C[n+]4ccccc4C)cc3)c2)N1` (stereo not shown) [EXAMPLE 5407], for which the IC50 ([3H]-taurocholate 8 μM uptake) is 52 nM.

Where the note is “[3H]-taurocholate 8 μM uptake”, `CCCCC1(CCCC)CS(=O)(=O)c2ccc(N(C)C)cc2C(c2cccc(NC(=S)Nc3ccc(C[n+]4ccc(-c5ccccc5)cc4)cc3F)c2)N1` (stereo not shown) [EXAMPLE P378] returned an IC50 of 34 nM.

For the compound `C=CC[N+](C)(C)Cc1ccc(NC(=S)Nc2cccc(C3NC(CCCC)(CCCC)CS(=O)(=O)c4ccc(N(C)C)cc43)c2)cc1` (stereo not shown) [EXAMPLE 3429], under “[3H]-taurocholate 8 μM uptake”, the IC50 was 55 nM.

`CCCCC1(CCCC)CS(=O)(=O)c2ccc(N(C)C)cc2C(c2cccc(NC(=S)Nc3ccc(C[n+]4ccc(-c5ccccc5)cc4)c(Cl)c3)c2)N1` (stereo not shown) [EXAMPLE P381] returned an IC50 ([3H]-taurocholate 8 μM uptake) of 28 nM.

In the case of `CCCCC1(CCCC)CS(=O)(=O)c2ccc(N(C)C)cc2C(c2cccc(NC(=S)Nc3ccc(C[N+](C)(C)Cc4ccccc4)c(Cl)c3)c2)N1` (stereo not shown) [EXAMPLE P333], the IC50 ([3H]-taurocholate 8 μM uptake) was determined as 44 nM.

For `CCCCC1(CCCC)CS(=O)(=O)c2ccc(N(C)C)cc2C(c2cccc(NC(=S)Nc3ccc(C[n+]4cccc(CC)c4)cc3)c2)N1` (racemic) [EXAMPLE 3722], where the note is “[3H]-taurocholate 8 μM uptake”, the IC50 amounted to 39 nM.

For the compound `CCCCC1(CCCC)CS(=O)(=O)c2ccc(N(C)C)cc2C(c2cccc(NC(=S)Nc3ccc(C[n+]4ccccc4CCOC(C)C)cc3)c2)N1` (stereo not shown) [EXAMPLE 5420], the IC50 ([3H]-taurocholate 8 μM uptake) turned out to be 68 nM.

Where the note is “[3H]-taurocholate 8 μM uptake”, `CCCCC1(CCCC)CS(=O)(=O)c2ccc(N(C)C)cc2C(c2cccc(NC(=S)NCCC[N+]3(Cc4ccccc4)CCCC(CO)C3)c2)N1` (stereo not shown) [EXAMPLE 592] displayed an IC50 of 100 nM.

On to `CCCCC1(CCCC)CS(=O)(=O)c2ccc(N(C)C)cc2C(c2cccc(NC(=S)Nc3ccc(C[n+]4ccc(C(C)(C)O)cc4)cc3)c2)N1` (stereo not shown) [EXAMPLE 5412], for which, under “[3H]-taurocholate 8 μM uptake”, the IC50 was determined as 37 nM.

`CCCCC1(CCCC)CS(=O)(=O)c2ccc(N(C)C)cc2C(c2cccc(NC(=S)Nc3c(C)cc(C[N+]45CCC(c6ccccc6)(CC4)CC5)cc3C)c2)N1` (stereo not shown) [EXAMPLE P350] registered an IC50 ([3H]-taurocholate 8 μM uptake) of 40 nM.

Compound `CCCCC1(CCCC)CS(=O)(=O)c2ccc(N(C)C)cc2C(c2cccc(NC(=S)Nc3ccc(C[N+](C)(C)CCN(C)C)cc3)c2)N1` (racemic) [EXAMPLE 3506] registered an IC50 ([3H]-taurocholate 8 μM uptake) of 127 nM.

Compound `CCCCC1(CCCC)CS(=O)(=O)c2ccc(N(C)C)cc2C(c2cccc(NC(=S)Nc3ccc(C[N+]45CCC(CC4)CC5)cc3C)c2)N1` (stereo not shown) [EXAMPLE P317] registered an IC50 ([3H]-taurocholate 8 μM uptake) of 49 nM.

Turning to `CCCCC1(CCCC)CS(=O)(=O)c2ccc(N(C)C)cc2C(c2cccc(NC(=S)Nc3ccc(C[N+]4(CC)CCCC4)cc3)c2)N1` (stereo not shown) [EXAMPLE 3568], for the setting “[3H]-taurocholate 8 μM uptake”, the IC50 came to 94 nM.

For `CCCCC1(CCCC)CS(=O)(=O)c2ccc(N(C)C)cc2C(c2cccc(NC(=S)Nc3ccc(C[N+]4(Cc5ccccc5)CCCCC4)cc3)c2)N1` (stereo not shown) [EXAMPLE 3593], the IC50 ([3H]-taurocholate 8 μM uptake) was determined as 70 nM.

Where the note is “[3H]-taurocholate 8 μM uptake”, `CCCCC1(CCCC)CS(=O)(=O)c2ccc(N(C)C)cc2C(c2cccc(NC(=S)Nc3ccc(C[N+](C)(C)Cc4ccccc4)cc3F)c2)N1` (stereo not shown) [EXAMPLE P330] had an IC50 of 32 nM.

With `CCCCC1(CCCC)CS(=O)(=O)c2ccc(N(C)C)cc2C(c2cccc(NC(=S)Nc3ccc(C[n+]4ccc(CCc5ccncc5)cc4)cc3)c2)N1` (racemic) [EXAMPLE 3764], half-maximal inhibition ([3H]-taurocholate 8 μM uptake) (IC50) required 80 nM.

In turn, `CCCCC1(CCCC)CS(=O)(=O)c2ccc(N(C)C)cc2C(c2cccc(NC(=S)Nc3ccc(C[n+]4cccc(F)c4)cc3)c2)N1` (stereo not shown) [EXAMPLE 5416] yielded an IC50 ([3H]-taurocholate 8 μM uptake) of 77 nM.

The compound `CCCCC1(CCCC)CS(=O)(=O)c2ccc(N(C)C)cc2C(c2cccc(NC(=S)Nc3ccc(C[n+]4ccc(C(c5ccccc5)c5ccccc5)cc4)cc3)c2)N1` (stereo not shown) [EXAMPLE 5410] came in with an IC50 ([3H]-taurocholate 8 μM uptake) of 100 nM.

Regarding `CCCCCCCCC[N+](C)(C)Cc1ccc(NC(=S)Nc2cccc(C3NC(CCCC)(CCCC)CS(=O)(=O)c4ccc(N(C)C)cc43)c2)cc1` (stereo not shown) [EXAMPLE 3413], where the note is “[3H]-taurocholate 8 μM uptake”, it took 73 nM to reach half-maximal inhibition (IC50).

Regarding `CCCCC1(CCCC)CS(=O)(=O)c2ccc(N(C)C)cc2C(c2cccc(NC(=S)Nc3ccc(C[n+]4ccc(-c5ccccc5)cc4)cc3C)c2)N1` (stereo not shown) [EXAMPLE P376], the IC50 ([3H]-taurocholate 8 μM uptake) is 37 nM.

`CCCCC1(CCCC)CS(=O)(=O)c2ccc(N(C)C)cc2C(c2cccc(NC(=S)Nc3ccc(C[n+]4ccc(C(C)(C)C)cc4)c(Cl)c3)c2)N1` (stereo not shown) [EXAMPLE P369]: for the setting “[3H]-taurocholate 8 μM uptake”, the IC50 was 34 nM.

As for `CCCCC1(CCCC)CS(=O)(=O)c2ccc(N(C)C)cc2C(c2cccc(NC(=S)Nc3ccc(C[n+]4ccccc4OCC)cc3)c2)N1` (racemic) [EXAMPLE 5415], it took 44 nM to reach half-maximal inhibition ([3H]-taurocholate 8 μM) (IC50).

On to `CCCCC1(CCCC)CS(=O)(=O)c2ccc(N(C)C)cc2C(c2cccc(NC(=S)Nc3ccc(C[n+]4c(C)cc(C)cc4C)cc3)c2)N1` (stereo not shown) [EXAMPLE 5409], for which the IC50 ([3H]-taurocholate 8 μM uptake) is 42 nM.

With `CCCCC1(CCCC)CS(=O)(=O)c2ccc(N(C)C)cc2C(c2cccc(NC(=S)Nc3ccc(C[n+]4ccc(C(C)(C)C)cc4)cc3C)c2)N1` (stereo not shown) [EXAMPLE P364], half-maximal inhibition ([3H]-taurocholate 8 μM uptake) (IC50) required 48 nM.

For the setting “[3H]-taurocholate 8 μM uptake”, `CCCCC1(CCCC)CS(=O)(=O)c2ccc(N(C)C)cc2C(c2cccc(NC(=S)Nc3ccc(C[n+]4ccc(C(C)(C)C)cc4)c(F)c3)c2)N1` (stereo not shown) [EXAMPLE P367] showed an IC50 of 23 nM.

`CCCCC1(CCCC)CS(=O)(=O)c2ccc(N(C)C)cc2C(c2cccc(NC(=S)Nc3ccc(C[n+]4cccc(-c5cccs5)c4)cc3)c2)N1` (racemic) [EXAMPLE 3726]: half-maximal inhibition ([3H]-taurocholate 8 μM uptake) (IC50) required 73 nM.
